{"source": "patent EP4778531A1", "about": "“MUSCLE RELAXANT ANTAGONIST FOR REVERSAL FOR BENZYLISOQUINOLINE MUSCLE RELAXANT” (priority 2023, dated 2025)", "key": {"[1]": {"tested_on": "cisatracurium-induced guinea pig muscle relaxation model", "test": "Antagonism of residual muscle relaxation after cisatracurium in anesthetized guinea pigs (TOF monitoring)", "type": "in vivo, Hartley guinea pigs", "details": "for Residual Muscle Relaxation Recovery Time tTOF0-50: spontaneous recovery before administration; for Degree of tTOF50-90 shortening: vs negative control group", "procedure": "Ninety (90) qualified Hartley guinea pigs, male, were used. Sixty (60) animals were randomly divided into 6 experimental groups based on body weight using a stratified random method: negative control group, positive control group, low-dose test group, medium-dose test group, high-dose test group, and combination group, with 10 animals per group (n=10). The remaining animals served as spares. The negative control group received 0.9% sodium chloride. The positive control group received 0.0625 mg/kg neostigmine methylsulfate (referred to as neostigmine). The low-dose test group received 10 mg/kg adamgammadex sodium. The medium-dose test group received 20 mg/kg adamgammadex sodium. The high-dose test group received 40 mg/kg adamgammadex sodium. The combination group received 10 mg/kg adamgammadex sodium and 0.03125 mg/kg neostigmine. The administration volume for all groups was 1 mL/kg.\nAdaptive feeding was conducted after the quarantine period. On the day of the experiment, guinea pigs were weighed, administered atropine (0.1 mg/kg) intramuscularly, and then anesthetized with an intraperitoneal injection of anesthetic (pentobarbital sodium 10 mg/kg, urethane 1000 mg/kg). After fixation, the animals were intubated and connected to a small animal ventilator. Both external jugular veins and the right carotid artery were cannulated. The left jugular vein was used for cisatracurium infusion, the right jugular vein for injection of different test substances, and the carotid artery was connected to a multi-channel physiological signal acquisition and processing system for continuous monitoring of arterial blood pressure and heart rate. Electrode patches were subcutaneously placed behind the left femur and tibia of the guinea pig, and two stimulating electrodes of the neuromuscular monitor were fixed to the two electrode patches. The left hind paw was fixed on a custom-made platform. A sensor was fixed to the skin surface over the gastrocnemius muscle of the left hind limb, and a skin temperature probe was fixed to a flat area of skin. Continuous single-twitch stimulation was applied at 1 Hz. After the twitch height stabilized, the mode was switched to train-of-four stimulation (TOF mode, stimulus current 5 mA, frequency 2 Hz, pulse width 0.2 ms, interval between trains 15 s) for at least 5 min. Calibration was then performed using Calibration Mode 2, followed by TOF mode stimulation. After obtaining a stable stimulation response for at least 2 min, cisatracurium solution was infused intravenously using a dual-channel micro-infusion pump, and the start time of infusion was recorded. […] At this point, cisatracurium infusion was stopped. After stopping the infusion, neuromuscular function was allowed to recover spontaneously. When neuromuscular function reached moderate recovery, the test drug formulation was administered intravenously. Neuromuscular function was allowed to recover completely, and the administration time was recorded (Figure 1). Using the time of spontaneous recovery to moderate neuromuscular function (TOF50) as zero point, the times for recovery from TOF50 to TOF75, TOF75 to TOF90, and TOF50 to TOF90 were calculated for each animal (Table 1-2). Arterial blood pressure (systolic, diastolic, mean arterial pressure) and heart rate were recorded before cisatracurium infusion, at the time cisatracurium infusion was stopped, at the time of moderate neuromuscular recovery, and at the time of complete neuromuscular function recovery (Tables 3-7). Data were expressed as Mean ± SD. Statistical T-tests were performed using SPSS software to evaluate differences in blood pressure, heart rate, and residual neuromuscular blockade recovery times. P < 0.05 was considered statistically significant."}, "[2]": {"tested_on": "Hypersensitivity-Related Factors", "test": "Antibody array (Ary028 immune chip kit): hypersensitivity-related factors after repeated dosing", "type": "in vivo", "details": "ICR mice; tail vein once daily for 5 days; Adamgammadex sodium 1 g/kg, Sugammadex sodium 1 mg/kg, Neostigmine 0.3 mg/kg; pooled plasma of 2 mice; N.D. = below minimum detection limit", "procedure": "An antibody array is a type of protein chip characterized by miniaturization, integration, and high throughput. It can be used to detect the expression abundance of proteins related to a specific physiological or pathological process. The principle involves arranging capture antibodies on a membrane or glass slide, incubating with the sample, adding biotin-labeled antibodies against the target proteins, and finally using HRP-streptavidin or fluorescein-streptavidin to detect the chip signal. Signals are detected using chemiluminescence or HiLyte™ Fluor 555-streptavidin.\nIn this experiment, ICR mice were randomly divided into a blank group, Adamgammadex sodium (1 g/kg) group, Sugammadex sodium (1 mg/kg) group, and Neostigmine (0.3 mg/kg) group, with 2 mice per group. Mice in each group given the corresponding dosage of compound via the tail vein once daily for 5 consecutive days. On the last day after administration, plasma from the 2 animals per group was mixed and detected using the Ary028 immune chip kit. Specific detection steps were as follows: • (1) Sample volume determination: 200 µL serum sample per Array unit. (2) Blocking protein chip: Each membrane was blocked with 2 mL of corresponding Array Buffer, incubated on a shaker for 1 hour. (3) Sample processing: Samples were diluted with corresponding Array Buffer to a volume of 1.5 mL per membrane, the corresponding Array unit was added, and incubated overnight with the Array protein membrane at 4°C. (4) Membranes were washed three times with corresponding Wash buffer, then diluted detection antibody was added and incubated at room temperature for 1 h. (5) Membranes were washed three times with corresponding Wash buffer, streptavidin-HRP was added and incubated for 30min at room temperature with shaking. (6) Membranes were washed three times with corresponding Wash buffer, 1 mL of chemiluminescent reagent was added to each well, and developed on a chemiluminescence imager. (7) Fluorescence intensity was used to represent the relative concentration of the corresponding protein."}, "[3]": {"details": "positive control group, 0.0625 mg/kg i.v."}, "[4]": {"details": "high-dose test group, 40 mg/kg i.v."}, "[5]": {"details": "low-dose test group, 10 mg/kg i.v."}, "[6]": {"details": "medium-dose test group, 20 mg/kg i.v."}}}
{"compound": "CN(C)C(=O)Oc1cccc([N+](C)(C)C)c1", "note": "[Neostigmine, neostigmine methylsulfate]", "values": [{"measurement": "Residual Muscle Relaxation Recovery Time Ratios RtTOF50-75/0-50", "setting": "[1]; [3]", "result": "0.09±0.07"}, {"measurement": "Residual Muscle Relaxation Recovery Time Ratios RtTOF50-90/0-50", "setting": "[1]; [3]", "result": "0.18±0.09"}, {"measurement": "Residual Muscle Relaxation Recovery Time Ratios RtTOF75-90/0-50", "setting": "[1]; [3]", "result": "0.09±0.07"}, {"measurement": "Residual Muscle Relaxation Recovery Time tTOF50-75", "setting": "[1]; [3]", "result": "101 ± 71", "unit": "s"}, {"measurement": "Residual Muscle Relaxation Recovery Time tTOF50-90", "setting": "[1]; [3]", "result": "188 ± 86", "unit": "s"}, {"measurement": "Residual Muscle Relaxation Recovery Time tTOF75-90", "setting": "[1]; [3]", "result": "87 ± 68", "unit": "s"}, {"measurement": "Residual Muscle Relaxation Recovery Time tTOF0-50", "setting": "[1]; [3]", "result": "1134 ± 281", "unit": "s"}, {"measurement": "Degree of tTOF50-90 shortening", "setting": "[1]; [3]", "result": 58.7, "unit": "%"}, {"measurement": "Fluorescence Intensity CCL11 (Eosinophil activation chemokine)", "setting": "[2]", "result": 6286.81}, {"measurement": "Fluorescence Intensity CCL12 (Monocyte chemotactic receptor 5)", "setting": "[2]", "result": 5003.37}, {"measurement": "Fluorescence Intensity GM-CSF (Granulocyte-macrophage colony-stimulating factor)", "setting": "[2]", "result": 1679.67}, {"measurement": "Fluorescence Intensity IL-1α (Interleukin 1α)", "setting": "[2]", "result": 1891.15}, {"measurement": "Fluorescence Intensity IL-1β (Interleukin 1β)", "setting": "[2]", "result": 1087.46}, {"measurement": "Fluorescence Intensity IL-3 (Interleukin 3)", "setting": "[2]", "result": 1133.66}, {"measurement": "Fluorescence Intensity IL-4 (Interleukin 4)", "setting": "[2]", "result": 3939.66}, {"measurement": "Fluorescence Intensity IL-5 (Interleukin-5)", "setting": "[2]", "result": 1864.09}, {"measurement": "Fluorescence Intensity IL-6 (Interleukin-6)", "setting": "[2]", "result": 2321.39}, {"measurement": "Fluorescence Intensity IL-15 (Interleukin-15)", "setting": "[2]", "result": 1503.8}, {"measurement": "Fluorescence Intensity TNF-α (Tumor necrosis factor)", "setting": "[2]", "result": 1116.77}]}
{"compound": "Adamgammadex sodium [Compound 1]", "values": [{"measurement": "Residual Muscle Relaxation Recovery Time Ratios RtTOF50-75/0-50", "setting": "[1]; [4]", "result": "0.10±0.11"}, {"measurement": "Residual Muscle Relaxation Recovery Time Ratios RtTOF50-90/0-50", "setting": "[1]; [4]", "result": "0.16±0.11"}, {"measurement": "Residual Muscle Relaxation Recovery Time Ratios RtTOF75-90/0-50", "setting": "[1]; [4]", "result": "0.06±0.06"}, {"measurement": "Residual Muscle Relaxation Recovery Time tTOF50-75", "setting": "[1]; [4]", "result": "131 ± 144", "unit": "s"}, {"measurement": "Residual Muscle Relaxation Recovery Time tTOF50-90", "setting": "[1]; [4]", "result": "201 ± 131", "unit": "s"}, {"measurement": "Residual Muscle Relaxation Recovery Time tTOF75-90", "setting": "[1]; [4]", "result": "71 ± 52", "unit": "s"}, {"measurement": "Residual Muscle Relaxation Recovery Time tTOF0-50", "setting": "[1]; [4]", "result": "1413 ± 693", "unit": "s"}, {"measurement": "Degree of tTOF50-90 shortening", "setting": "[1]; [4]", "result": 55.8, "unit": "%"}, {"measurement": "Residual Muscle Relaxation Recovery Time Ratios RtTOF50-75/0-50", "setting": "[1]; [5]", "result": "0.14±0.10"}, {"measurement": "Residual Muscle Relaxation Recovery Time Ratios RtTOF50-90/0-50", "setting": "[1]; [5]", "result": "0.23±0.13"}, {"measurement": "Residual Muscle Relaxation Recovery Time Ratios RtTOF75-90/0-50", "setting": "[1]; [5]", "result": "0.09±0.05"}, {"measurement": "Residual Muscle Relaxation Recovery Time tTOF50-75", "setting": "[1]; [5]", "result": "143 ± 85", "unit": "s"}, {"measurement": "Residual Muscle Relaxation Recovery Time tTOF50-90", "setting": "[1]; [5]", "result": "248 ± 139", "unit": "s"}, {"measurement": "Residual Muscle Relaxation Recovery Time tTOF75-90", "setting": "[1]; [5]", "result": "105 ± 78", "unit": "s"}, {"measurement": "Residual Muscle Relaxation Recovery Time tTOF0-50", "setting": "[1]; [5]", "result": "1093 ± 427", "unit": "s"}, {"measurement": "Degree of tTOF50-90 shortening", "setting": "[1]; [5]", "result": 45.5, "unit": "%"}, {"measurement": "Residual Muscle Relaxation Recovery Time Ratios RtTOF50-75/0-50", "setting": "[1]; [6]", "result": "0.12±0.05"}, {"measurement": "Residual Muscle Relaxation Recovery Time Ratios RtTOF50-90/0-50", "setting": "[1]; [6]", "result": "0.22±0.08"}, {"measurement": "Residual Muscle Relaxation Recovery Time Ratios RtTOF75-90/0-50", "setting": "[1]; [6]", "result": "0.09±0.07"}, {"measurement": "Residual Muscle Relaxation Recovery Time tTOF50-75", "setting": "[1]; [6]", "result": "159 ± 72", "unit": "s"}, {"measurement": "Residual Muscle Relaxation Recovery Time tTOF50-90", "setting": "[1]; [6]", "result": "279 ± 123", "unit": "s"}, {"measurement": "Residual Muscle Relaxation Recovery Time tTOF75-90", "setting": "[1]; [6]", "result": "120 ± 99", "unit": "s"}, {"measurement": "Residual Muscle Relaxation Recovery Time tTOF0-50", "setting": "[1]; [6]", "result": "1349 ± 381", "unit": "s"}, {"measurement": "Degree of tTOF50-90 shortening", "setting": "[1]; [6]", "result": 38.7, "unit": "%"}, {"measurement": "Fluorescence Intensity CCL12 (Monocyte chemotactic receptor 5)", "setting": "[2]", "result": 168.83}, {"measurement": "Fluorescence Intensity IL-4 (Interleukin 4)", "setting": "[2]", "result": 225.32}, {"measurement": "Fluorescence Intensity IL-6 (Interleukin-6)", "setting": "[2]", "result": 89.83}]}
